# Measured values: US9919000B2, “Altering cancer cellular functions through proton mopping” (priority 2013, dated 2018)
# Assays:
# [1] = test system: mouse 4T1 breast tumor; test: In vivo syngeneic mouse 4T1 breast tumor study; design: species or system Balb/c mice
# Source text: The Purpose: to assess the anti-tumor activity of the existing compound, C12H25NO8, PEGylated amine functionalized glycoside, 2-[2(2-Aminoethoxy)ethoxy]ethyl a-D-mannopyranoside, on a model of mouse 4T1 breast tumor in Balb/C mice.
# Animal and Facility: healthy female Balb/c (5-6 weeks old), purchased from Harlan Laboratories, were allowed to acclimate for 3 days in a specific pathogen free animal facility. Animal housing, handling and procedures were followed according to the protocols and guidelines approved by the lab's Institutional Animal Care and Use Committee (IACUC).
# In Vivo Syngeneic Tumor Study Design: Murine 4T1 breast tumor cells were kept in RPMI-1640 medium containing 10% FBS and 1% Pen/Strep. On the day of inoculation, the cells were harvested according to standard protocol (Beth Pulaski) and re-suspended in PBS at the cell concentration of 2.5×10^5 cells/ml. Each animal was injected with 0.1 ml of the cell solution into the right flank of Balb/c mice following the SOP. On the 8th day post-inoculation, all tumor volumes were measured and the animals were divided into two groups, control and treated.
# Study Design: to deliver a predetermined dose of the compound intravenously for 5 days.
# Study Objective: to observe clinically the reduction of the size of the tumors using calipers (our “biomarker”).[FIG. 2]
# (§1) Treatment: the tested compound was prepared right before dosing on day 8 after 4T1 inoculation. Each mouse received a predetermined dose of either the compound or saline intravenously daily for 5 consecutive days. The mice tumor volumes and mice body weights were monitored every other day along with other general behavior factors.
# (§2) Endpoints: animal was euthanized if one of the following conditions was identified: • its neoplasm reached the predetermined 1000 cubic mms • the animal became moribund • body weight lost more than 20% of its original weight
# [2] = Tolerability in the 4T1 tumor study (body weight, general behavior); assay type: in vivo; conditions: intravenous daily dosing for 5 consecutive days, tumor-bearing Balb/c mice
# Protocol: as §1, §2
smiles,measurement,setting,value
"NCCOCCOCCO[C@H]1OC(CO)[C@@H](O)[C@H](O)C1O (stereo partly drawn) [compound 5, 1-(2-(2-(2-Aminoethoxy)ethoxy)ethoxy-D-mannopyranoside]",maximal tumor growth inhibition index (TIC ratio),"[1]; by day 10, intravenously daily for 5 consecutive days from day 8 after 4T1 inoculation, tumor size by calipers",around 48%
same,4T1 tumor growth in the treated group,"[1]; during treatment (day 8 to day 12), control tumors doubled every 2-3 days",grew slowly
same,tumor reduction,"[1]; syngeneic mouse breast cancer model, FIG. 1",48%
same,toxic effects / tolerability,[2],no toxic effects were observed
